Data published in PubChem BioAssay (NCI).
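Step 1: Grow cells in 96-well plates. Step 2: Expose to compound for 48 hours at 5 concentrations. Step 3: Interpolate endpoints linearly; if unreached, use highest concentration. Here, GI50 denotes the concentration required for 50% inhibition of growth. TGI: total growth inhibition.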

Legend:
Experiment in all cases: NCI anticancer screen, dose series, 48 h
CCRF-CEM leukemia = tested on: CCRF-CEM leukemia
SR leukemia = tested on: SR leukemia
HOP-92 NSCLC = tested on: HOP-92 NSCLC
UACC-62 melanoma = tested on: UACC-62 melanoma
EKVX NSCLC = tested on: EKVX NSCLC
SK-MEL-28 melanoma = tested on: SK-MEL-28 melanoma
NCI-H460 lung = tested on: NCI-H460 lung
UO-31 renal = tested on: UO-31 renal
U251 CNS = tested on: U251 CNS
HCT-116 colon = tested on: HCT-116 colon

SMILES | TGI (CCRF-CEM leukemia) [µM] | TGI (SR leukemia) [µM] | TGI (HOP-92 NSCLC) [µM] | TGI (UACC-62 melanoma) [µM] | TGI (EKVX NSCLC) [µM] | TGI (SK-MEL-28 melanoma) [µM] | TGI (NCI-H460 lung) [µM] | TGI (UO-31 renal) [µM] | TGI (U251 CNS) [µM] | TGI (HCT-116 colon) [µM] | GI50 (CCRF-CEM leukemia) [nM] | GI50 (SR leukemia) [nM] | GI50 (HOP-92 NSCLC) [nM] | GI50 (UACC-62 melanoma) [nM] | GI50 (EKVX NSCLC) [µM] | GI50 (SK-MEL-28 melanoma) [µM] | GI50 (NCI-H460 lung) [nM] | GI50 (UO-31 renal) [nM] | GI50 (U251 CNS) [nM] | GI50 (HCT-116 colon) [nM]
CCSc1nc(COC(=O)NC)c(COC(=O)NC)n1C | > 100 | > 100 | > 90.6 | 51.2 | > 100 | > 100 | > 100 | > 100 | > 100 | > 100 | – | – | – | – | – | – | – | – | – | –
COc1ccc2c(c1)C(=O)c1c-2n(CCCN2CCOCC2)c(=O)c2ccccc12 | > 20.7 | > 32.6 | > 57.5 | 5.87 | > 89.2 | > 100 | 3.58 | 3.26 | 11.6 | 4.54 | 1190 | 579 | 8390 | 1760 | 4.52 | 11.2 | 561 | 799 | 2010 | 1660
Oc1cc(Cl)ccc1Oc1ccc(Cl)cc1Cl | 10.6 | 10.9 | 5.69 | 5 | 11.9 | 10.4 | 8.3 | 12 | 10.1 | 6.43 | 3360 | 3460 | 2110 | 2160 | 3.04 | 3.09 | 2850 | 2760 | 2730 | 2550
Clc1ccc(CN2COc3c(cc(Cl)c4cccnc34)C2)cc1 | 4.94 | 6.88 | 12.9 | 4.11 | 14.2 | 7.38 | 9.19 | 5.51 | 6.45 | 5.49 | – | – | – | – | – | – | – | – | – | –
CC(=O)c1cccc(NCn2nnc3ccccc32)c1 | > 100 | > 100 | > 100 | > 100 | > 100 | > 100 | > 100 | > 100 | > 100 | > 100 | – | – | – | – | – | – | – | – | – | –
Cc1ncc([N+](=O)[O-])n1CCNC(=O)CCCn1cnc([N+](=O)[O-])n1 | > 100 | > 100 | > 100 | > 100 | > 31.6 | > 100 | > 100 | > 100 | > 100 | > 100 | – | – | – | – | – | – | – | – | – | –
O=c1oc2ccc(Cl)cc2c(=O)n1-c1ccc(I)cc1F | 5.14 | 5.97 | 0.202 | 0.788 | 4.98 | 2.01 | > 23.8 | 1.2 | > 35.6 | 1.35 | 702 | 228 | 57.1 | 104 | 0.444 | 0.178 | 199 | 126 | 262 | 255
